Where two headings read alike, the source gives them in different places.

The target in the test is T1, mTOR (Homo sapiens, UniProt P42345).
T1 construct: FLAG; made in house
Description: In Vitro mTOR Kinase Assay (Echo), Test (a)(ii). In kind it is biochemical. A digest of the protocol: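 Compounds were acoustically dispensed, then incubated with FLAG-tagged mTOR (1362-2549) for 2 hours at room temperature. Reactions were quenched with EDTA plus detection antibody and AlphaScreen beads and left overnight in the dark before reading. Loss of phospho-T389 signal gave IC50 values.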

Where [1] appears, read: read-out: mTOR Kinase Assay (Echo).
[2] abbreviates: table of enzyme assay Test (a)(ii), read-out: Test (a)(ii) IC50.

T1 sequence (P42345 1362-2549): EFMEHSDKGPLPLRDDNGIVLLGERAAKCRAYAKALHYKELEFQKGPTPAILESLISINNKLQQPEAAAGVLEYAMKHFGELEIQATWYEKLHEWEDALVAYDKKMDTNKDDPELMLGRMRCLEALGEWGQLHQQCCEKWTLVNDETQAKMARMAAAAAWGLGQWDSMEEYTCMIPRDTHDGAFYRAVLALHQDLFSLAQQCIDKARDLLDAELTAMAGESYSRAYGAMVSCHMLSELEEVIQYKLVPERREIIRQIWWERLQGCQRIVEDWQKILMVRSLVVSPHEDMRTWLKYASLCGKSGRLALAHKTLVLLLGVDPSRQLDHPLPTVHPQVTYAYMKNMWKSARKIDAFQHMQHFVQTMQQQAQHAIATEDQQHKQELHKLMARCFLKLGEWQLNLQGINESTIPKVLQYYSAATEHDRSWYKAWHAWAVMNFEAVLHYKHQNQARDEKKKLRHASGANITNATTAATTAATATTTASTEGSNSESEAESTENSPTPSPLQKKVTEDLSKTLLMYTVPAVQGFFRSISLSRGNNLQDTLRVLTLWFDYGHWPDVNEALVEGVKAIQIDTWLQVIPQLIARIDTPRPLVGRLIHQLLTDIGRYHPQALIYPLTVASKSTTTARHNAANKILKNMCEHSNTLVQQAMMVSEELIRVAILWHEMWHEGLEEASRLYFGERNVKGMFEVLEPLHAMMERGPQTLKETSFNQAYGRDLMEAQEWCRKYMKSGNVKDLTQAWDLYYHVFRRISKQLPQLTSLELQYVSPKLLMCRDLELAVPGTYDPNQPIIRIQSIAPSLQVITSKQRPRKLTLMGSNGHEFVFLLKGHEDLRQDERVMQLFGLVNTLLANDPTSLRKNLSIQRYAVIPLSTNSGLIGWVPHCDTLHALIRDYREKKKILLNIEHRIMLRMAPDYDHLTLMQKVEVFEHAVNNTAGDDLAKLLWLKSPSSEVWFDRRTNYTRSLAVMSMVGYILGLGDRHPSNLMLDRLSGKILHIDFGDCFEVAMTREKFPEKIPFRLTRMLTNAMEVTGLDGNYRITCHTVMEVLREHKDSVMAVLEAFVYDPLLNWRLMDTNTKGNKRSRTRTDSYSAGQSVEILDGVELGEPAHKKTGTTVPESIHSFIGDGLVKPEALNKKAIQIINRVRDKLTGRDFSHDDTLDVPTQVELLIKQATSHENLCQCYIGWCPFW

Turning to `C[C@H]1COCCN1c1cc(C2(S(C)(=O)=O)CCCC2)nc(-c2ccc(NC(=O)Nc3ccccn3)cc2)n1` [Example 4l, 1-[4-[4-[(3S)-3-methylmorpholin-4-yl]-6-(1-methylsulfonylcyclopentyl)pyrimidin-2-yl]phenyl]-3-pyridin-2-yl-urea], the IC50 under setting [1] turned out to be 3.69 nM.

As to `C[C@H]1COCCN1c1cc(C2(S(C)(=O)=O)CCCC2)nc(-c2ccc(NC(=O)Nc3cnn(C)c3)cc2)n1` [Example 4m, 1-[4-[4-[(3S)-3-methylmorpholin-4-yl]-6-(1-methylsulfonylcyclopentyl)pyrimidin-2-yl]phenyl]-3-(1-methylpyrazol-4-yl)urea], the IC50 under setting [1] was 2.45 nM.

Consider `C[C@H]1COCCN1c1cc(C2(S(C)(=O)=O)CCCC2)nc(-c2ccc(NC(=O)NCc3ncc[nH]3)cc2)n1` [Example 4n, 3-(1H-imidazol-2-ylmethyl)-1-[4-[4-[(3S)-3-methylmorpholin-4-yl]-6-(1-methylsulfonylcyclopentyl)pyrimidin-2-yl]phenyl]urea], for which the IC50 under setting [1] was determined as 39.2 nM.

In the case of `CNC(=O)Nc1ccc(-c2nc(N3CCOC[C@@H]3C)cc(C3(S(C)(=O)=O)CCC3)n2)cc1` [Example 5, 3-Methyl-1-[4-[4-[(3S)-3-methylmorpholin-4-yl]-6-(1-methylsulfonylcyclobutyl)pyrimidin-2-yl]phenyl]urea], the IC50 under setting [1] was 0.802 nM.

For `CCNC(=O)Nc1ccc(-c2nc(N3CCOC[C@@H]3C)cc(C3(S(C)(=O)=O)CCC3)n2)cc1` [Example 5a, 3-ethyl-1-[4-[4-[(3S)-3-methylmorpholin-4-yl]-6-(1-methylsulfonylcyclobutyl)pyrimidin-2-yl]phenyl]urea], under setting [1], the IC50 came to 0.289 nM.

For the molecule `CC(C)NC(=O)Nc1ccc(-c2nc(N3CCOC[C@@H]3C)cc(C3(S(C)(=O)=O)CCC3)n2)cc1` [Example 5c, 1-[4-[4-[(3S)-3-methylmorpholin-4-yl]-6-(1-methylsulfonylcyclobutyl)pyrimidin-2-yl]phenyl]-3-propan-2-yl-urea], the IC50 under setting [1] stood at 6.81 nM.

`C[C@H]1COCCN1c1cc(C2(S(C)(=O)=O)CCC2)nc(-c2ccc(NC(=O)NC3CCC3)cc2)n1` [Example 5d, 3-cyclobutyl-1-[4-[4-[(3S)-3-methylmorpholin-4-yl]-6-(1-methylsulfonylcyclobutyl)pyrimidin-2-yl]phenyl]urea]: the IC50 worked out at 3.85 nM under setting [1] and 2.74 nM under setting [2].

Regarding `C[C@H]1COCCN1c1cc(C2(S(C)(=O)=O)CCC2)nc(-c2ccc(NC(=O)NC(C)(C)CO)cc2)n1` [Example 5f, 3-(1-hydroxy-2-methyl-propan-2-yl)-1-[4-[4-[(3S)-3-methylmorpholin-4-yl]-6-(1-methylsulfonylcyclobutyl)pyrimidin-2-yl]phenyl]urea], the IC50 reads like this: under setting [1], 7.36 nM; under setting [2], 4.85 nM.

Consider `C[C@H]1COCCN1c1cc(C2(S(C)(=O)=O)CCC2)nc(-c2ccc(NC(=O)NCCN(C)C)cc2)n1` [Example 5g, 3-(2-dimethylaminomethyl)-1-[4-[4-[(3S)-3-methylmorpholin-4-yl]-6-(1-methylsulfonylcyclobutyl)pyrimidin-2-yl]phenyl]urea], for which the IC50 under setting [1] was found to be 66.8 nM.

For the molecule `CCCNC(=O)Nc1ccc(-c2nc(N3CCOC[C@@H]3C)cc(C3(S(C)(=O)=O)CCC3)n2)cc1` [Example 5h, 1-[4-[4-[(3S)-3-methylmorpholin-4-yl]-6-(1-methylsulfonylcyclobutyl)pyrimidin-2-yl]phenyl]-3-propyl-urea], the IC50 under setting [1] was found to be 2.34 nM.

Take `CC(C)CNC(=O)Nc1ccc(-c2nc(N3CCOC[C@@H]3C)cc(C3(S(C)(=O)=O)CCC3)n2)cc1` [Example 5i, 1-[4-[4-[(3S)-3-methylmorpholin-4-yl]-6-(1-methylsulfonylcyclobutyl)pyrimidin-2-yl]phenyl]-3-(2-methylpropyl)urea]: the IC50 under setting [1] stood at 9.88 nM.

In the case of `C[C@H]1COCCN1c1cc(C2(S(C)(=O)=O)CCC2)nc(-c2ccc(NC(=O)NCCCO)cc2)n1` [Example 5j, 3-(3-hydroxypropyl)-1-[4-[4-[(3S)-3-methylmorpholin-4-yl]-6-(1-methylsulfonylcyclobutyl)pyrimidin-2-yl]phenyl]urea], the IC50 is, setting by setting: under setting [1], 0.239 nM; under setting [2], 0.173 nM.

(Values after patent publication US20090018134A1, “Compounds - 945” (AstraZeneca AB, priority 2007, published 2009).)
